From paper PMC3395220 (Journal of Medicinal Chemistry, 2012)

Key:
BT-549 = assay type: cell-based, human; conditions: 10^Δ2-x, relative to compound 2
RXF 393 = assay type: cell-based, human; conditions: 10^Δ2-x, relative to compound 2
NCI-H226 = assay type: cell-based, human; conditions: 10^Δ2-x, relative to compound 2
U251 = assay type: cell-based, human; conditions: 10^Δ2-x, relative to compound 2
DU-145 = assay type: cell-based, human; conditions: 10^Δ2-x, relative to compound 2
UO-31 = assay type: cell-based, human; conditions: 10^Δ2-x, relative to compound 2
HS578T = assay type: cell-based, human; conditions: 10^Δ2-x, relative to compound 2
[1] = test system: COLO-205 colon cancer cells; assay: Subcutaneous COLO-205 colon xenograft; assay type: in vivo, athymic nu/nu mice; conditions: iv q2dx10 at 10 mg/Kg and q3dx10 at 20 mg/Kg
HT29 = assay type: cell-based, human; conditions: 10^Δ2-x, relative to compound 2
SK-MEL-2 melanoma cells = assay: Subcutaneous SK-MEL-2 melanoma xenograft; assay type: in vivo, athymic nu/nu mice; conditions: iv q2dx10 at 10 mg/Kg and q3dx10 at 20 mg/Kg
CCRF-CEM = assay type: cell-based, human; conditions: 10^Δ2-x, relative to compound 2
786-0 = assay type: cell-based, human; conditions: 10^Δ2-x, relative to compound 2
PC-3 = assay type: cell-based, human; conditions: 10^Δ2-x, relative to compound 2
HOP-92 = assay type: cell-based, human; conditions: 10^Δ2-x, relative to compound 2
UACC-62 = assay type: cell-based, human; conditions: 10^Δ2-x, relative to compound 2
[2] = Tolerability during xenograft treatment; assay type: in vivo, athymic nu/nu mice; conditions: iv q2dx10 10 mg/Kg and q3dx10 20 mg/Kg, colon and melanoma models

SMILES: CO[C@@H]([C@@H]1Cc2cc3cc(O[C@H]4C[C@@H](O[C@H]5C[C@@H](O)[C@H](O)[C@@H](C)O5)[C@H](O)[C@@H](C)O4)c(C)c(O)c3c(O)c2C(=O)[C@H]1O[C@H]1C[C@@H](O[C@H]2C[C@@H](O[C@H]3C[C@H](O)[C@H](O)[C@@H](C)O3)[C@H](O)[C@@H](C)O2)[C@H](O)[C@@H](C)O1)[C@@H](O)C(C)=O [Compound 9, demycarosyl-3D-β-D-digitoxosyl-mithramycin SK]
- activity improvement factor (BT-549): 0.94
- activity improvement factor (RXF 393): 0.86
- activity improvement factor (NCI-H226): 2.26
- activity improvement factor (U251): 1.26
- activity improvement factor (DU-145): 4.47
- activity improvement factor (UO-31): 2.40
- activity improvement factor (HS578T): 1.76
- tumor growth of COLO-205 colon xenografts [1]: reduced notably
- activity improvement factor (HT29): 3.55
- growth of SK-MEL-2 human melanoma xenografts (SK-MEL-2 melanoma cells): markedly delayed
- activity improvement factor (CCRF-CEM): 1.14
- activity improvement factor (786-0): 1.88
- activity improvement factor (PC-3): 4.62
- activity improvement factor (HOP-92): 1.11
- activity improvement factor (UACC-62): 1.02
- tolerability in xenograft-bearing mice [2]: well tolerated and no signs of toxicity or deaths
